The results in this text go back to publication PMC5791972 (PLoS ONE, 2018).

Structures are written as SMILES. Like-named read-outs stand apart in the source and are kept apart here.

Data set [1] can be described thus: in vivo.
The target in data set [2] is T1, human TRPC5 (hTRPC5) (Homo sapiens, UniProt Q9UL62).
T1 construct: The cDNAs for various full-length ion channels were subcloned into pcDNA5/TO; expressed in transfected cells
The data set can be described thus: Fluorometric calcium influx assay. Format: cell-based. The following applies: indicator-assisted calcium influx, 1 pM to 1 μM, n = 8.

The target of data set [3] is T2, hTRPC1/hTRPC5 (Homo sapiens, UniProt Q9UL62).
T2 construct: The cDNAs for various full-length ion channels were subcloned into pcDNA5/TO; expressed in transfected cells; host or cells: heterologous co-expression
T2 sequence (Q9UL62 whole entry): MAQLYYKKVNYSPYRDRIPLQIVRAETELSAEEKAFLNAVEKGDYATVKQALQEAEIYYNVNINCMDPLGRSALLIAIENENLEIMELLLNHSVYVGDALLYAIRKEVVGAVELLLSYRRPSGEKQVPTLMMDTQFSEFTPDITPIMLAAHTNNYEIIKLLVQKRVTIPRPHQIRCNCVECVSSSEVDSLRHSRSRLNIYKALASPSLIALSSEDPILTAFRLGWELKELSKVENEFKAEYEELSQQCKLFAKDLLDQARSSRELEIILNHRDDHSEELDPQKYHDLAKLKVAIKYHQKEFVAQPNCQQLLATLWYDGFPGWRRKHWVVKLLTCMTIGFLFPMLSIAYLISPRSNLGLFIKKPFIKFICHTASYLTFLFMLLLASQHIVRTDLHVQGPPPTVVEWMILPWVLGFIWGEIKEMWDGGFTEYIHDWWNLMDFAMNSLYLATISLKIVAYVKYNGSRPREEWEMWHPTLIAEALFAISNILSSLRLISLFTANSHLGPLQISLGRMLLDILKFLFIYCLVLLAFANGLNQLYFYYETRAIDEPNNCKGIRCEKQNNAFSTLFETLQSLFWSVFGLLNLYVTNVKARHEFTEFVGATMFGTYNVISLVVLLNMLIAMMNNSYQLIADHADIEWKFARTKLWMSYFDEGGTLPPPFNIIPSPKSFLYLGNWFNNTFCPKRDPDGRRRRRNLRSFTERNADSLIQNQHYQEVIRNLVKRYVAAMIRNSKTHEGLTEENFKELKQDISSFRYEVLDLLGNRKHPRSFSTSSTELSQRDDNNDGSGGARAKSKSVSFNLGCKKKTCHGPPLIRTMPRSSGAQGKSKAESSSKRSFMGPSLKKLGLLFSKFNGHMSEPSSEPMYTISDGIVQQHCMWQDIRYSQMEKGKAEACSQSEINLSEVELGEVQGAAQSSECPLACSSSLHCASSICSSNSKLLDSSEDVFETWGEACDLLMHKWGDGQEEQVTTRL
T2 sequence (P48995 whole entry partner): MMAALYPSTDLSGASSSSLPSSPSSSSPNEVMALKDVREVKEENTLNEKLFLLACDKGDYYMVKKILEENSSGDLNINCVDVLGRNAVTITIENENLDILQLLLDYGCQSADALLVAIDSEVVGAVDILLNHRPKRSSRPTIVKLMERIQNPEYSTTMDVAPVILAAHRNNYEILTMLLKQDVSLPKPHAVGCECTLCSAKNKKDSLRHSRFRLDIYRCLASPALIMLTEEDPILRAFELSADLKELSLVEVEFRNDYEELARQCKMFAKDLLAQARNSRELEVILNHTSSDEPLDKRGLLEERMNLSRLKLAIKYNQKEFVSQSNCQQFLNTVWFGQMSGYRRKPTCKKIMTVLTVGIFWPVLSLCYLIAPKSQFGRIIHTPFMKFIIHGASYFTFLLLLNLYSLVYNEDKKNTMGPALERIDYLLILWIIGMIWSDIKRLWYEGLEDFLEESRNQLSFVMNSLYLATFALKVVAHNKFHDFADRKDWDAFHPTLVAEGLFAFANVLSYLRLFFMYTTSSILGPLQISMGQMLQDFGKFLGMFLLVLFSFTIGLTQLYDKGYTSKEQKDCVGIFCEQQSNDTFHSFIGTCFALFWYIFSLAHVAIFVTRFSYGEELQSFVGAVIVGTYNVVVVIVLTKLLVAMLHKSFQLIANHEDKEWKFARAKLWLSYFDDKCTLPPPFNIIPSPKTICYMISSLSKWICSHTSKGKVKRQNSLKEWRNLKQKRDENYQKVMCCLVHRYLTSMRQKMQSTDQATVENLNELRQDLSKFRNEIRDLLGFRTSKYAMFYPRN
The data set can be described thus: Whole-cell manual patch clamp. Format: cell-based. (In general: The patch-clamp technique gives a direct electrical read-out from membranes.)

The target in data set [4] is CCK2 (CCKB) (h) (Homo sapiens, UniProt P32239). Format: binding. The following applies: 1.0E-06 M.
Sequence of CCK2 (CCKB) (h) (P32239 whole entry): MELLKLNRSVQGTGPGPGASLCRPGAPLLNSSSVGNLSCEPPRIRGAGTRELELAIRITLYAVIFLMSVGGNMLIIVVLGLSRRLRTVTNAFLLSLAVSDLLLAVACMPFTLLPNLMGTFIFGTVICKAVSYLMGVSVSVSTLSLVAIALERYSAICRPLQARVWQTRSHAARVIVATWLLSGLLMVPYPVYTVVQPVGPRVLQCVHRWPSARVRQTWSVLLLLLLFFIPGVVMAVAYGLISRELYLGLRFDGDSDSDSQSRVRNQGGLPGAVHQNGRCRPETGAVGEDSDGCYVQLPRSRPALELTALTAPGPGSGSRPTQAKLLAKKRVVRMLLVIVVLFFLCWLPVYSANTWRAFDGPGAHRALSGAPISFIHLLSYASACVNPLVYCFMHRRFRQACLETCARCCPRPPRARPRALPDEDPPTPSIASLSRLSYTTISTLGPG
Data set [5] has as its target T3, ETA (h) (Homo sapiens, UniProt P25101).
T3 construct: host or cells: CHO cells
T3 sequence (P25101 21-427): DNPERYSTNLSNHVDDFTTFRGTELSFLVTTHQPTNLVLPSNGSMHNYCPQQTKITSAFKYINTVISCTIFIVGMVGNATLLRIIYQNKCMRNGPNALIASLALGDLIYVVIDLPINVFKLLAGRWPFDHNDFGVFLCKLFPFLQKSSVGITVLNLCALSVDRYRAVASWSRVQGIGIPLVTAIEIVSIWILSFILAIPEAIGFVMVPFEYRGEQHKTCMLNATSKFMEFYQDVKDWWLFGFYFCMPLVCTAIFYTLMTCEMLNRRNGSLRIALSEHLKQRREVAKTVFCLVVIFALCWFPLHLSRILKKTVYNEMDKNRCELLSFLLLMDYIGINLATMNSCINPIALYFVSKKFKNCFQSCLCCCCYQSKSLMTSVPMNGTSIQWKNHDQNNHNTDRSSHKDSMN
Format: binding. The following applies: 1.0E-06 M.

The test system of data set [6] is PCP. Format: binding, rat. Particulars: 1.0E-06 M.
The target in data set [7] is CaMK2α (h) (Homo sapiens, UniProt Q9UQM7). The data set can be described thus: enzyme assay. Format: biochemical. Particulars: 1.0E-06 M.
Data set [8] concerns the target T4, ZAP70 kinase (h) (Homo sapiens, UniProt P43403).
T4 construct: host or cells: insect cells
T4 sequence (P43403 1-619): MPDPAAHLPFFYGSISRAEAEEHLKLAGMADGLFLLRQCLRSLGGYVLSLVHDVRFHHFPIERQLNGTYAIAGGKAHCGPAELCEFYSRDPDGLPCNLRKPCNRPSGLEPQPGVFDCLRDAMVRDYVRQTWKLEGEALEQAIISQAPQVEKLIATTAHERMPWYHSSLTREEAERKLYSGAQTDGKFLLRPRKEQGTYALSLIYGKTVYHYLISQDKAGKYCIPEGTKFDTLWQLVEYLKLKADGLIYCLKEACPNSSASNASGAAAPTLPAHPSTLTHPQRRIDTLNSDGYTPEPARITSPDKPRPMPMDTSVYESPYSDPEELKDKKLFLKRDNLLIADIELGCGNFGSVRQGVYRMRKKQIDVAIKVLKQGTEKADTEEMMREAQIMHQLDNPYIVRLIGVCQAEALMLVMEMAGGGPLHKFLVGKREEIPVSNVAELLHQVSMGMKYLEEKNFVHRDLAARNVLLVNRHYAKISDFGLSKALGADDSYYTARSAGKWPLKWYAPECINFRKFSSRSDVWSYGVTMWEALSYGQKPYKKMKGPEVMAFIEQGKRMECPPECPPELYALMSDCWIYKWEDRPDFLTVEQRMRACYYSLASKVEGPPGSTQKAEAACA
The data set can be described thus: biochemical. Particulars: 1.0E-06 M.

Data set [9] addresses T5, M4 (h) (Homo sapiens, UniProt P08173).
T5 sequence (P08173 1-479): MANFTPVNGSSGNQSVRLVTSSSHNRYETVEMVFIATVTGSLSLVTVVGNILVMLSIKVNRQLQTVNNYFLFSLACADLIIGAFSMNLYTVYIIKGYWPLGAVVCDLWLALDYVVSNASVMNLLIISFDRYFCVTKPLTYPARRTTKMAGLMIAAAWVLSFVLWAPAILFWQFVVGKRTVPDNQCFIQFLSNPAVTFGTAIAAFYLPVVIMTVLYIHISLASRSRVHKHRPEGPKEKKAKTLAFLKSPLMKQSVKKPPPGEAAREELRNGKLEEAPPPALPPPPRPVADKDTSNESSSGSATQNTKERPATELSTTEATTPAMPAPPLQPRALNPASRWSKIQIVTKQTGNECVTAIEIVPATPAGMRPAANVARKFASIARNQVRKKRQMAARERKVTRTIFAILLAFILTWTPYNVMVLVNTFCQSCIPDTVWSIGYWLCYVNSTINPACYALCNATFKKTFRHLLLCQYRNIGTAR
The data set can be described thus: biochemical.

The target in data set [10] is 5-HT1D (Rattus norvegicus, UniProt P28565). The data set can be described thus: biochemical.
Sequence of 5-HT1D (P28565 whole entry): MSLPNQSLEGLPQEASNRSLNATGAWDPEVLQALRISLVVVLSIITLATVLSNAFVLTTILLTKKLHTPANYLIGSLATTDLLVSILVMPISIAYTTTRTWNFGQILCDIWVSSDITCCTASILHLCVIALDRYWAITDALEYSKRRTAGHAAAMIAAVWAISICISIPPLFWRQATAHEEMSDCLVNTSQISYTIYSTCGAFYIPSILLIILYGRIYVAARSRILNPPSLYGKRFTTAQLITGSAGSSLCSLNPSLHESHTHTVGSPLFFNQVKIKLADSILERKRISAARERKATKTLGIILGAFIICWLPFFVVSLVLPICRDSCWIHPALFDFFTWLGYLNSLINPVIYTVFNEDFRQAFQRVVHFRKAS
Data set [11] has as its target 5-HT4e (h) (Homo sapiens, UniProt Q13639). The data set can be described thus: biochemical.
The mark [12] stands for this setting: Swiss Webster, mouse, iv, 1 mg/kg.
The mark [13] stands for this setting: Swiss Webster, mouse, po, 10 mg/kg.
Setting [14] is: male, C57BL/6, mouse, iv, 1 mg/kg.
[15] abbreviates: male, C57BL/6, mouse, po, 10 mg/kg.

Sequence of 5-HT4e (h) (Q13639 1-378 isoform Q13639-5): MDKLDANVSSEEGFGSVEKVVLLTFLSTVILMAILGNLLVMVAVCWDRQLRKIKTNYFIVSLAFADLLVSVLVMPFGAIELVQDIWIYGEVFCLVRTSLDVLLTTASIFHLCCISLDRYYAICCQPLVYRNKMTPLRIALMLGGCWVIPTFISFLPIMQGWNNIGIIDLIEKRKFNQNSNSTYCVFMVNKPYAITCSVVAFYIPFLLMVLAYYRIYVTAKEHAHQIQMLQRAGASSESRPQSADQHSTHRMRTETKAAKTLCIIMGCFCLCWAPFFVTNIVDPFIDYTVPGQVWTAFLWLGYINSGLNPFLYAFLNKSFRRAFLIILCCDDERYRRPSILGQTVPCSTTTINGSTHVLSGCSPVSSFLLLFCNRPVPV
T1 sequence (Q9UL62 whole entry): as the sequence (Q9UL62 whole entry) above

Turning to `Cn1c(=O)n(CCCO)c(=O)c2c1nc(Oc1cccc(Cl)c1)n2Cc1ccc(Cl)cc1` [HC-070], the distribution volume (Vd) in data set [1] (setting [12]) is 2.2 L/kg; in data set [1] (setting [14]), 1.5 L/kg. The clearance stood at 11 mL/min/kg in data set [1] (setting [12]) and 13 mL/min/kg in [1] (setting [14]). The values for the half-life in data set [1] (setting [12]) and in data set [1] (setting [13]) were 3.6 h and 2.7 h, respectively. Moreover, the time of peak concentration (Tmax) in [1] (setting [13]) and in data set [1] (setting [15]) was 1 h throughout. For the same compound, the concentration at 2 h in data set [1] (male, C57BL/6, mouse, iv, 1 mg/kg, CBR (concentration in brain)) turned out to be 299 ± 11 nM; in data set [1] (male, C57BL/6, mouse, iv, 1 mg/kg, CPL (concentration in plasma)), 339 ± 66 nM; in [1] (male, C57BL/6, mouse, po, 10 mg/kg, CBR (concentration in brain)), 525 ± 72 nM; in [1] (male, C57BL/6, mouse, po, 10 mg/kg, CPL (concentration in plasma)) it was 583 ± 108 nM. Moreover, the Cmax in data set [1] (setting [15]) was determined as 937 nM.

For `Cn1c(=O)n(CCCO)c(=O)c2c1nc(Oc1cccc(OC(F)(F)F)c1)n2Cc1ccc(Cl)cc1` [HC-608], the IC50 was 6.2 ± 0.5 nM in [2], approximately 4.7 nM in data set [3] (20 μM carbachol/M1R) and approximately 1.4 nM in [3] (La3+ (80 μM)). In addition, the inhibition at 1 µM was -13.8% in data set [4] (read-out: % Inhibition 1st); -0.7% in [4] (read-out: % Inhibition 2nd); -7.2% in data set [4] (read-out: % Inhibition Mean); -33.9% in data set [5] (read-out: % Inhibition 1st); 6.7% in data set [5] (read-out: % Inhibition 2nd); -13.6% in data set [5] (read-out: % Inhibition Mean). For the same compound, the inhibition at 1 µM in data set [7] (read-out: % Inhibition 1st) was -4%; in data set [7] (read-out: % Inhibition 2nd), 2.8%; in data set [7] (read-out: % Inhibition Mean) it was -0.6%; in data set [8] (read-out: % Inhibition 1st), -1.6%; in data set [8] (read-out: % Inhibition 2nd) it was -3%; in [8] (read-out: % Inhibition Mean), -2.3%. In addition, the inhibition at 1 µM in data set [9] (read-out: % Inhibition 1st) was -16.1%; in data set [9] (read-out: % Inhibition 2nd) it was 3.9%; in [9] (read-out: % Inhibition Mean) it was -6.1%; in data set [10] (read-out: % Inhibition 1st) it was -4.2%; in data set [10] (read-out: % Inhibition 2nd), -8.8%; in data set [10] (read-out: % Inhibition Mean), -6.5%. For the same compound, the inhibition at 1 µM in data set [11] (read-out: % Inhibition 1st) was -3.7%; in [11] (read-out: % Inhibition 2nd), 10.6%; in data set [11] (read-out: % Inhibition Mean), 3.4%. In addition, in [6], the “% Inhibition 1st” value is reported as -9%. For the same compound, the “% Inhibition 2nd” value in data set [6] is reported as -0.1%. For the same compound, the “% Inhibition Mean” value in [6] is recorded as -4.6%.

By Vd is commonly meant the apparent volume that relates the amount in the body to the concentration in plasma or blood. A low value points to confinement near the circulation. A word on the clearance: it is the rate of elimination divided by the concentration. Low readings indicate inefficient removal, high ones efficient removal. For orientation: half-life means the time needed for the level to fall by half in the phase considered. A low value points to rapid decline. Usually Tmax stands for the time at which the peak concentration occurs. Usually Cmax stands for the highest concentration seen after dosing. One may read the IC50 as the point on the concentration scale where inhibition reaches its midpoint. By inhibition is commonly meant the drop in the measured response relative to a control, in per cent.
